# What was measured:
# Format in all cases: cell-based
# [1] = system: Erythrocytes from fresh sheep blood; assay: in vitro
# Protocol: The toxicity of WZ1–WZ4 compounds towards red blood cells was tested using the erythrocyte lysis assay (ELA). Erythrocytes from fresh sheep blood (BioMaxima S.A., Poland) were centrifuged and washed with 0.85% NaCl. Next, 100 μL of a 2% suspension of red blood cells in physiological saline was added to the wells of microtiter plate. The double dilutions of compounds WZ1–WZ4 were prepared in the range of 2000–15.62 μg/mL. Appropriate controls were used to assess the hemolytic potential of tested compounds, i.e., 100% lysis of erythrocytes using 4% Triton X-100 (Pol-Aura, Różnowo, Poland) and 0% lysis in saline solution. Next, all sample plates were incubated (1 h at 37 °C), centrifuged for 10 min to separate unlysed red blood cells, and the supernatant was placed in a new plate. The ELA is a biological test by which the lytic response can be measured spectrophotometrically (at a wavelength of 450 nm) by the amount of hemoglobin released. The hemolysis percentage was calculated according to the following equation:(1) % Hemolysis = A450 of test compound treated sample − A450 of buffer treated sample/A450 of 4% Triton X100 treated samples − A450 of buffer treated sample × 100
# [2] = system: Enterococcus faecalis ATCC 29212; assay: Broth microdilution antimicrobial activity; conditions: Enterococcus faecalis ATCC 29212
# Text: (§1) Reference strains of microorganisms that came from American Type Culture Collection (ATCC) (Manassas, VA, USA) were used for this study. The representative Gram-positive bacteria were as follows: Staphylococcus aureus ATCC 25923, Staphylococcus aureus ATCC 29213, Staphylococcus aureus ATCC 43300, Staphylococcus epidermidis ATCC 12228, Enterococcus faecalis ATCC 29212, Micrococcus luteus ATCC 10240, Bacillus subtilis ATCC 6633 and Bacillus cereus ATCC 10876. While, those of Gram-negative bacteria were as follows: Bordetella bronchiseptica ATCC 4617, Escherichia coli ATCC 25922, Klebsiella pneumoniae ATCC 13883, Proteus mirabilis ATCC 12453, Salmonella Typhimurium ATCC 14028 and Pseudomonas aeruginosa ATCC 9027. Moreover, the following fungi belonging to yeasts were used: Candida albicans ATCC 10231, Candida albicans ATCC 2091, Candida parapsilosis ATCC 22019, Candida glabrata ATCC 90030 and Candida krusei ATCC 14243.
# (§2) The new compounds WZ1–WZ4 were assayed for both antibacterial and antifungal activity using the broth microdilution method in accordance with the European Committee on Antimicrobial Susceptibility Testing (EUCAST) and Clinical and Laboratory Standards Institute (CLSI) guidelines. The microorganisms were grown at 35 °C for 18–24 h on appropriate media (nutrient agar and Sabouraud for bacteria and fungi, respectively) (BioMaxima S.A., Lublin, Poland). Next, microbial suspensions with an optical density of 0.5 McFarland standard scale (in sterile 0.85% NaCl) were prepared. In turn, the tested compounds were initially diluted at 50 mg/mL in dimethyl sulfoxide (DMSO) and the broth microdilution method was used to assess their minimum inhibitory concentrations (MICs). For these studies, selective broth Mueller-Hinton (MH) (BioMaxima S.A., Lublin, Poland) and RPMI (Roswell Park Memorial Institute) 1640 with MOPS (3-(N-Morpholino)propanesulfonic acid) (Sigma-Aldrich Chemicals, St. Louis, MO, USA) were used for bacteria and fungi, respectively. The antimicrobial effect of compounds WZ1–WZ4 was determined in the concentration range from 2000 to 0.98 µg/mL.
# (§3) Then, the microbial suspensions were introduced into each well of the microplate and incubated for 18–24 h at 35 °C. […] The reference drugs ciprofloxacin or vancomycin (against bacteria) and nystatin (against fungi) (Sigma-Aldrich Chemicals, St. Louis, MO, USA) were also used. Next, the values of the minimum bactericidal concentration (MBC) and minimum fungicidal concentration (MFC) of WZ1–WZ4 were assessed. For this purpose, the cultures from each MIC determination well were transferred to a suitable solid medium and incubated under appropriate conditions. The lowest concentrations of compounds without microbial growth were read as MBC or MFC. The studies were performed in triplicate and representative data were gathered.
# (§4) In turn, the MBC/MIC or MFC/MIC ratios were used to assess bactericidal/fungicidal (MBC/MIC or MFC/MIC ≤ 4) and bacteriostatic/fungistatic (MBC/MIC or MFC/MIC > 4) effect of these compounds [93].
# [3] = system: Klebsiella pneumoniae ATCC 13883; assay: Broth microdilution antimicrobial activity
# Text: as §1, §2, §3, §4
# [4] = system: Pseudomonas aeruginosa ATCC 9027; assay: Broth microdilution antimicrobial activity
# Text: as §1, §2, §3, §4
# [5] = system: Salmonella Typhimurium ATCC 14028; assay: Broth microdilution antimicrobial activity
# Text: as §1, §2, §3, §4
# [6] = system: Bacillus subtilis ATCC 6633; assay: Broth microdilution antimicrobial activity
# Text: as §1, §2, §3, §4
# [7] = system: Escherichia coli ATCC 25922; assay: Broth microdilution antimicrobial activity
# Text: as §1, §2, §3, §4
# [8] = system: Micrococcus luteus ATCC 10240; assay: Broth microdilution antimicrobial activity
# Text: as §1, §2, §3, §4
# [9] = system: Bordetella bronchiseptica ATCC 4617; assay: Broth microdilution antimicrobial activity
# Text: as §1, §2, §3, §4
# [10] = system: Staphylococcus aureus ATCC 43300; assay: Broth microdilution antimicrobial activity; conditions: Staphylococcus aureus ATCC 43300
# Text: as §1, §2, §3, §4
# [11] = system: Bacillus cereus ATCC 10876; assay: Broth microdilution antimicrobial activity
# Text: as §1, §2, §3, §4
# [12] = system: Staphylococcus aureus ATCC 25923; assay: Broth microdilution antimicrobial activity
# Text: as §1, §2, §3, §4
# [13] = system: Staphylococcus aureus ATCC 29213; assay: Broth microdilution antimicrobial activity; conditions: Staphylococcus aureus ATCC 29213
# Text: as §1, §2, §3, §4
# [14] = system: Staphylococcus epidermidis ATCC 12228; assay: Broth microdilution antimicrobial activity
# Text: as §1, §2, §3, §4
# [15] = system: Proteus mirabilis ATCC 12453; assay: Broth microdilution antimicrobial activity
# Text: as §1, §2, §3, §4
# [16] = system: Candida glabrata ATCC 90030; assay: Broth microdilution antimicrobial activity
# Text: as §1, §2, §3, §4
# [17] = system: Candida albicans ATCC 10231; assay: Broth microdilution antimicrobial activity
# Text: as §1, §2, §3, §4
# [18] = system: Candida albicans ATCC 2091; assay: Broth microdilution antimicrobial activity
# Text: as §1, §2, §3, §4
# [19] = system: Candida krusei ATCC 14243; assay: Broth microdilution antimicrobial activity
# Text: as §1, §2, §3, §4
# [20] = system: Candida parapsilosis ATCC 22019; assay: Broth microdilution antimicrobial activity
# Text: as §1, §2, §3, §4
molecule,measurement,setting,value
Triton X-100 [reference compound],erythrocyte lysis,[1],100%
"CN[C@H](CC(C)C)C(=O)N[C@H]1C(=O)N[C@@H](CC(N)=O)C(=O)N[C@H]2C(=O)N[C@H]3C(=O)N[C@H](C(=O)N[C@H](C(=O)O)c4cc(O)cc(O)c4-c4cc3ccc4O)[C@H](O)c3ccc(c(Cl)c3)Oc3cc2cc(c3O[C@@H]2O[C@H](CO)[C@@H](O)[C@H](O)[C@H]2O[C@H]2C[C@](C)(N)[C@H](O)[C@H](C)O2)Oc2ccc(cc2Cl)[C@H]1O [VA, vancomycin, reference compound]",MBC,[2],1.95 µg/mL
same,MBC/MIC,[2],2
same,MIC,[2],0.98 µg/mL
"O=C(O)c1cn(C2CC2)c2cc(N3CCNCC3)c(F)cc2c1=O [CIP, ciprofloxacin, reference compound]",MBC/MIC,[3],2
same,MBC,[3]; ATCC13883,0.24 µg/mL
same,MIC,[3]; ATCC13883,0.12 µg/mL
same,MBC/MIC,[4],2
same,MBC,[4]; ATCC9027,0.98 µg/mL
same,MIC,[4]; ATCC9027,0.48 µg/mL
same,MBC/MIC,[5],1
same,MBC,[5]; Salmonella enterica,0.06 µg/mL
same,MIC,[5]; Salmonella enterica,0.06 µg/mL
same,MBC/MIC,[6],1
same,MBC,[6]; ATCC6633,0.03 µg/mL
same,MIC,[6]; ATCC6633,0.03 µg/mL
same,MBC/MIC,[7],2
same,MBC,[7]; ATCC25922,0.008 µg/mL
same,MIC,[7]; ATCC25922,0.004 µg/mL
same,MBC/MIC,[8],2
same,MBC,[8]; ATCC10240,1.95 µg/mL
same,MIC,[8]; ATCC10240,0.98 µg/mL
same,MBC/MIC,[9],1
same,MBC,[9]; ATCC4617,0.98 µg/mL
same,MIC,[9]; ATCC4617,0.98 µg/mL
same,MBC,[10]; ATCC43300,0.24 µg/mL
same,MIC,[10]; ATCC43300,0.24 µg/mL
same,MBC/MIC,[10],1
same,MBC/MIC,[11],2
same,MBC,[11]; ATCC10876,0.12 µg/mL
same,MIC,[11]; ATCC10876,0.06 µg/mL
same,MBC/MIC,[12],1
same,MBC,[12]; ATCC25923,0.48 µg/mL
same,MIC,[12]; ATCC25923,0.48 µg/mL
same,MBC,[13]; ATCC29213,0.48 µg/mL
same,MIC,[13]; ATCC29213,0.48 µg/mL
same,MBC/MIC,[13],1
same,MBC/MIC,[14],1
same,MBC,[14]; ATCC12228,0.12 µg/mL
same,MIC,[14]; ATCC12228,0.12 µg/mL
same,MBC/MIC,[15],1
same,MBC,[15]; ATCC12453,0.03 µg/mL
same,MIC,[15]; ATCC12453,0.03 µg/mL
"C[C@@H]1[C@H](O)[C@@H](C)/C=C/C=C/CC/C=C/C=C/C=C/C=C/C(O[C@H]2O[C@H](C)[C@@H](O)[C@H](N)[C@@H]2O)CC2O[C@](O)(CC(O)C(O)CCC(O)CC(O)CC(O)CC(=O)O[C@H]1C)CC(O)C2C(=O)O (stereo partly shown) [NY, nystatin, reference compound]",MFC,[16],0.48 µg/mL
same,MFC/MIC,[16],2
same,MIC,[16],0.24 µg/mL
same,MFC,[17],0.48 µg/mL
same,MFC/MIC,[17],1
same,MIC,[17],0.48 µg/mL
same,MFC,[18],0.24 µg/mL
same,MFC/MIC,[18],1
same,MIC,[18],0.24 µg/mL
same,MFC,[19],0.24 µg/mL
same,MFC/MIC,[19],1
same,MIC,[19],0.24 µg/mL
same,MFC,[20],0.48 µg/mL
same,MFC/MIC,[20],2
same,MIC,[20],0.24 µg/mL
